{"source": "paper PMC7316994", "about": "“In Vitro Pharmacological Profile of a New Small Molecule Bradykinin B2 Receptor Antagonist” (Frontiers in Pharmacology, 2020)", "key": {"mouse B2 receptor": {"biological_target": "T1, mouse B2 receptor (Mus musculus, UniProt P32299)", "T1 construct": "host or cells: HEK293T cells", "T1 sequence (P32299 1-392)": "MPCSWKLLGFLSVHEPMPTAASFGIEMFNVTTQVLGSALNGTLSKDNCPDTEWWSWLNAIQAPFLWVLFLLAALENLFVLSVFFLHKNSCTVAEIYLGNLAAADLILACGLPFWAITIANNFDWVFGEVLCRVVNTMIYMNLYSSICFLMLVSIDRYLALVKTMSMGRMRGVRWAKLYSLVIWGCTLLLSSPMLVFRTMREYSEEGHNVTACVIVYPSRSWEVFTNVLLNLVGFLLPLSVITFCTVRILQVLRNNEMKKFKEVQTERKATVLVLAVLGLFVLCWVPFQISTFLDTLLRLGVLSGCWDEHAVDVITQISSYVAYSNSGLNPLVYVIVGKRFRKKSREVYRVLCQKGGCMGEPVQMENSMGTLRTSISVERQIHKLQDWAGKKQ", "test": "Ca^2+ mobilization assay, HEK293T cells", "type": "cell-based", "conditions": "BK at EC80 0.53 nM, n=1"}, "[1]": {"system": "Chloride Cl- channel (GABA-gated)", "test": "radioligand binding (Table S2)", "conditions": "[35S] TBPS, Rat cerebral cortex"}, "Dopamine D4.2": {"biological_target": "T2, Dopamine D4.2 (Homo sapiens, UniProt P21917, DEL265-296)", "T2 construct": "host or cells: CHO-K1 cells", "T2 sequence (P21917 with tags, fused parts or gaps DEL265-296)": "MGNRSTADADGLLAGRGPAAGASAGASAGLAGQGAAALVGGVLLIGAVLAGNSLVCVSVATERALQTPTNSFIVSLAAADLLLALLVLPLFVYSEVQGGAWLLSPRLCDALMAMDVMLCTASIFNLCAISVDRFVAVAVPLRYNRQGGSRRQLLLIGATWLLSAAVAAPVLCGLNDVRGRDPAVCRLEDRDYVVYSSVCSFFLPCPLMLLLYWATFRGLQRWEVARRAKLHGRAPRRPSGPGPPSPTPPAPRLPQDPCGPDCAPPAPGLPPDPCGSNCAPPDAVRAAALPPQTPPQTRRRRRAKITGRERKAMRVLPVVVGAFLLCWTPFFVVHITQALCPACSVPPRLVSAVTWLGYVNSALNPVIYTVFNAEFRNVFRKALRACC", "test": "radioligand binding (Table S2)", "conditions": "[3H] Spiperone, Human recombinant CHO-K1 cells"}, "[2]": {"system": "Glutamate, NMDA, phencyclidine", "test": "radioligand binding (Table S2)", "conditions": "[3H] TCP, Wistar rat cerebral cortex"}, "Histamine H4": {"biological_target": "T3, Histamine H4 (Homo sapiens, UniProt Q9H3N8)", "T3 construct": "host or cells: HEK-293 cells", "test": "radioligand binding (Table S2)", "conditions": "[3H] Histamine, Human recombinant HEK-293 cells"}, "Melatonin MT1 (ML1A)": {"biological_target": "T4, Melatonin MT1 (ML1A) (Homo sapiens, UniProt P48039)", "T4 construct": "host or cells: CHO cells", "T4 sequence (P48039 whole entry)": "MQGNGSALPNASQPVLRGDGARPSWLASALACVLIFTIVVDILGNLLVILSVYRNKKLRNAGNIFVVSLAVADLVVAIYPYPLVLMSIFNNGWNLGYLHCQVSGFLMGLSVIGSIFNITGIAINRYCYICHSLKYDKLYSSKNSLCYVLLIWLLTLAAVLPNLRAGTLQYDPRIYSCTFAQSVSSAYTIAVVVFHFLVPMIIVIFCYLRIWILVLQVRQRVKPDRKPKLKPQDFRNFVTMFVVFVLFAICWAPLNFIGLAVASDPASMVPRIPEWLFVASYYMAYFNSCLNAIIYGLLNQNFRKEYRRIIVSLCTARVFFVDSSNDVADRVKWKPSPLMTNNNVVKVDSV", "test": "radioligand binding (Table S2)", "conditions": "[125I] 2-iodomelatonin, Human recombinant CHO cells"}, "Neurokinin NK2": {"biological_target": "T5, Neurokinin NK2 (Homo sapiens, UniProt P21452)", "T5 construct": "host or cells: CHO cells", "T5 sequence (P21452 1-398)": "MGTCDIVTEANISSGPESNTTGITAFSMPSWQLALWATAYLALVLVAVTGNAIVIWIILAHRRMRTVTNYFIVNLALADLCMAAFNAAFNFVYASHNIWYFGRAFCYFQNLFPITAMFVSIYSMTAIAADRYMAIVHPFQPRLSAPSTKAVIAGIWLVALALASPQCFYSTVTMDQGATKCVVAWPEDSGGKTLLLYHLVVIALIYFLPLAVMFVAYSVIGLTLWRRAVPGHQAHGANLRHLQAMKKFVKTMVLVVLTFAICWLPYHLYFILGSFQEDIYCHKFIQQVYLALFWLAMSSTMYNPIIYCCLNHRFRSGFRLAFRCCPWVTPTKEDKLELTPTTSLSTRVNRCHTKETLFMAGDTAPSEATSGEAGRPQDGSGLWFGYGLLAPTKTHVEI", "test": "radioligand binding (Table S2)", "conditions": "[125I] NKA, Human recombinant CHO cells"}, "Neuropeptide Y2": {"biological_target": "T6, Neuropeptide Y2 (Homo sapiens, UniProt P49146)", "T6 construct": "KAN-TYS cells; host or cells: KAN-TYS cells", "test": "radioligand binding (Table S2)", "conditions": "[125I] Peptide YY, KAN-TYS cells"}, "Opioid κ (KOP)": {"biological_target": "T7, Opioid κ (KOP) (Rattus norvegicus, UniProt P34975)", "T7 construct": "host or cells: CHO cells", "T7 sequence (P34975 whole entry)": "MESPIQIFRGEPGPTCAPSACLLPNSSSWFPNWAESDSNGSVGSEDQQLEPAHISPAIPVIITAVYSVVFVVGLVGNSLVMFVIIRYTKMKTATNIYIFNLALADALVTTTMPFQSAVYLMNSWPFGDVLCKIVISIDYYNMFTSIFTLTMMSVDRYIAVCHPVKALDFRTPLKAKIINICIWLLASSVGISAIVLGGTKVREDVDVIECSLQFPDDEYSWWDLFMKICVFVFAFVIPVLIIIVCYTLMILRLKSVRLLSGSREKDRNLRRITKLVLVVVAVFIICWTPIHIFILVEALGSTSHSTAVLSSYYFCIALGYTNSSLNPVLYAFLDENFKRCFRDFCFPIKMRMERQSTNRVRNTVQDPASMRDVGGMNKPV", "test": "radioligand binding (Table S2)", "conditions": "[3H] U 69593, Rat recombinant CHO cells"}, "Prostacyclin IP (PGI2)": {"biological_target": "T8, Prostacyclin IP (PGI2) (Homo sapiens, UniProt P43119)", "T8 construct": "host or cells: HEK-293 cells", "T8 sequence (P43119 whole entry)": "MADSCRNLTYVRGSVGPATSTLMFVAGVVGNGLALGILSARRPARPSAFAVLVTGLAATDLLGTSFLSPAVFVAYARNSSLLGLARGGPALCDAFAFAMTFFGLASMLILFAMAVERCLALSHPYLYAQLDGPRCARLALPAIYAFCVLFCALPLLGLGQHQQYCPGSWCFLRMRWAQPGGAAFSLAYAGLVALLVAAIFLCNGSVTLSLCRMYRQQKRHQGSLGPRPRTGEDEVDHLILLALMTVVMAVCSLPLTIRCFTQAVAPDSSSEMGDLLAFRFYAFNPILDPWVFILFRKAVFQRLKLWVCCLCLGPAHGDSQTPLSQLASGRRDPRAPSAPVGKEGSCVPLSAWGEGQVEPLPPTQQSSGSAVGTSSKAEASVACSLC", "test": "radioligand binding (Table S2)", "conditions": "[3H] Iloprost, Human recombinant HEK-293 cells"}, "Purinergic receptor P2X": {"system": "Purinergic receptor P2X", "test": "radioligand binding (Table S2)", "conditions": "[3H] α,β-MeATP, Rat urinary bladder"}, "Serotonin 5-HT2C": {"biological_target": "T9, Serotonin 5-HT2C (Homo sapiens, UniProt P28335)", "T9 construct": "host or cells: HEK-293 cells", "test": "radioligand binding (Table S2)", "conditions": "[3H] Mesulergine, Human recombinant HEK-293 cells"}, "Serotonin 5-HT6": {"biological_target": "T10, Serotonin 5-HT6 (Homo sapiens, UniProt P50406)", "T10 construct": "host or cells: CHO cells", "T10 sequence (P50406 whole entry)": "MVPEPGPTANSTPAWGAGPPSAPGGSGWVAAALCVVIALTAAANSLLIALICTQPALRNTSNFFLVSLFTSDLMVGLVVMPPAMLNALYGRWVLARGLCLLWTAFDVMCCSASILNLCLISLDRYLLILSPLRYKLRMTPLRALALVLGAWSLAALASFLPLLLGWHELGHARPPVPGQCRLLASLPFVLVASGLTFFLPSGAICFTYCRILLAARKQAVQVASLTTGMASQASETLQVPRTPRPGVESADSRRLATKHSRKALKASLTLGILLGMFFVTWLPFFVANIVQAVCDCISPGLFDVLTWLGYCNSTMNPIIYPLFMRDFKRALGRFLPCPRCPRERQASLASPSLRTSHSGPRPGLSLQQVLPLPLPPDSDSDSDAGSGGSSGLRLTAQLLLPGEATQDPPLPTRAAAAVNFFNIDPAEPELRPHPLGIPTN", "test": "radioligand binding (Table S2)", "conditions": "[3H] LSD, Human recombinant CHO cells"}, "Serotonin 5-HT7": {"biological_target": "T11, Serotonin 5-HT7 (Homo sapiens, UniProt P34969)", "T11 construct": "host or cells: CHO cells", "T11 sequence (P34969 whole entry)": "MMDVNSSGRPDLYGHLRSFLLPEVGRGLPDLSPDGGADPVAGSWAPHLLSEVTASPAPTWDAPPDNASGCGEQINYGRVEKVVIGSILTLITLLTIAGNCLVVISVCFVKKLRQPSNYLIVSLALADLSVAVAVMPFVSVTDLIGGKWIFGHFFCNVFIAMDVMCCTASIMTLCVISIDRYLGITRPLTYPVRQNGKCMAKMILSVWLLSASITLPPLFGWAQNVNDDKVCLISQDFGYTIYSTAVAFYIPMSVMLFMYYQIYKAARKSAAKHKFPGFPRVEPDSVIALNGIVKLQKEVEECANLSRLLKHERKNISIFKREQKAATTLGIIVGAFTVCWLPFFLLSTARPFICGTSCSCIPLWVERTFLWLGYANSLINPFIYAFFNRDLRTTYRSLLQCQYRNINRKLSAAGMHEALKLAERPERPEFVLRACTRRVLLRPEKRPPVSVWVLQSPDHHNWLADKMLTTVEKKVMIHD", "test": "radioligand binding (Table S2)", "conditions": "[3H] LSD, Human recombinant CHO cells"}, "[3]": {"system": "Sodium Na+ channel (site 2)", "type": "binding", "conditions": "[3H] Batrachotoxinin, Rat cerebral cortex"}, "PDE3A": {"biological_target": "PDE3A (Homo sapiens, UniProt Q14432)", "sequence (Q14432 whole entry)": "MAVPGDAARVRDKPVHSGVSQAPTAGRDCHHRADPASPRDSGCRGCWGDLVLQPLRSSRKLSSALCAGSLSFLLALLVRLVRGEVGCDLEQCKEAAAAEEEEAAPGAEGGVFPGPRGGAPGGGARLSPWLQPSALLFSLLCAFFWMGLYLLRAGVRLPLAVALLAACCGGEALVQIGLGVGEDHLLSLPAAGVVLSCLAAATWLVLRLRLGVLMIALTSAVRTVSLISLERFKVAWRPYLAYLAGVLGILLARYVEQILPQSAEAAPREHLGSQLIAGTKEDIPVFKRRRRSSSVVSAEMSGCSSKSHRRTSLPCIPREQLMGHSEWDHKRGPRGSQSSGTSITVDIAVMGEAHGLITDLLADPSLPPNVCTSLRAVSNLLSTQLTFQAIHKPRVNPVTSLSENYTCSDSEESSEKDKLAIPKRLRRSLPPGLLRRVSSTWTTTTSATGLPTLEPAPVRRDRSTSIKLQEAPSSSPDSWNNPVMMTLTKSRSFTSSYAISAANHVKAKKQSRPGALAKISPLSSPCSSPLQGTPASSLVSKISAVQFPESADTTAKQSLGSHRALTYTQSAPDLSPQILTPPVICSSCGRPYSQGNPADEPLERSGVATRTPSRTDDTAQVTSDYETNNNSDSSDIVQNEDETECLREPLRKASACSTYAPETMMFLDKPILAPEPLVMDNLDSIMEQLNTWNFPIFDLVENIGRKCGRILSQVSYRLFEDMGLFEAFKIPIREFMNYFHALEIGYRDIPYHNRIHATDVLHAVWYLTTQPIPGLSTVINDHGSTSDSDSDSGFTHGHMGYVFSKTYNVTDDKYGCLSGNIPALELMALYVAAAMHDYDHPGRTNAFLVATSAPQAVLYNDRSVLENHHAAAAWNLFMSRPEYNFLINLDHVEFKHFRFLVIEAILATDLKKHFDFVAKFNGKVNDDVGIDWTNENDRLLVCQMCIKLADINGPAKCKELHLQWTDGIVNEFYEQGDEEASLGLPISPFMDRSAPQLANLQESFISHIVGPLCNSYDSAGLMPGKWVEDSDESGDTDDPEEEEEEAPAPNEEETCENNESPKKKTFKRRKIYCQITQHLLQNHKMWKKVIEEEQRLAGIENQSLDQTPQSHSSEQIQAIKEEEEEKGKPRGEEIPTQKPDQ", "test": "enzyme assay (Table S2)", "type": "biochemical", "conditions": "[3H]cAMP + cAMP (0.5 µM), Scintillation counting"}, "Bombesin BB1": {"biological_target": "T12, Bombesin BB1 (Homo sapiens, UniProt P28336)", "T12 construct": "host or cells: CHO cells", "T12 sequence (P28336 whole entry)": "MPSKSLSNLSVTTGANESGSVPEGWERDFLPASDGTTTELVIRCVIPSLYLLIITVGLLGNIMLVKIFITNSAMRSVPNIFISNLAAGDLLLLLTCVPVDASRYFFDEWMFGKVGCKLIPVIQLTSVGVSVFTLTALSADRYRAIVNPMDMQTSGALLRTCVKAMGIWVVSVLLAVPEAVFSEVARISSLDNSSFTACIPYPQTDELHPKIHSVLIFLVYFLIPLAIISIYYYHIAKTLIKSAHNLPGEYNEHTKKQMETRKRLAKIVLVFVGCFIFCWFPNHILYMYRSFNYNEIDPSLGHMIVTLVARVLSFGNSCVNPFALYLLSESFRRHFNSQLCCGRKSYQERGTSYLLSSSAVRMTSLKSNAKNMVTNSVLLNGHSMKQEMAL", "test": "functional assay, intracellular [Ca2+], CHO cells (Table S2)", "type": "cell-based"}, "Vasopressin V1B": {"biological_target": "T13, Vasopressin V1B (Homo sapiens, UniProt P47901)", "T13 construct": "expressed in transfected cells; host or cells: RBL cells", "test": "functional assay, intracellular [Ca2+], RBL cells (Table S2)", "type": "cell-based", "conditions": "read-out: % inhibition of reference agonist response @ 10 µM (antagonist effect), Vasopressin (5 nM)"}, "Adenosine A3": {"biological_target": "T14, Adenosine A3 (Homo sapiens, UniProt P0DMS8)", "T14 sequence (P0DMS8 1-318)": "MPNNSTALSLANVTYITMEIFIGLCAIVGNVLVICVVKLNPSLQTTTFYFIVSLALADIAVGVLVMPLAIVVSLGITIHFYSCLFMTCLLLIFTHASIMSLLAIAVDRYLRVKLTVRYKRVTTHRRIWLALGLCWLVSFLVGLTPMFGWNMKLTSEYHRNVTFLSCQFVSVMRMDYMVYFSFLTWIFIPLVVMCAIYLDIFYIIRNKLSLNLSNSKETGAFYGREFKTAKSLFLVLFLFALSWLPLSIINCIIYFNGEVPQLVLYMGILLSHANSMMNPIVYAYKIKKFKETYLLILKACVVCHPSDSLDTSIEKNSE", "test": "functional assay, cAMP HTRF, CHO cells (Table S2)", "type": "cell-based", "design": "host or cells: CHO cells"}, "Adrenergic β3": {"biological_target": "Adrenergic β3 (Homo sapiens, UniProt P13945)", "sequence (P13945 whole entry)": "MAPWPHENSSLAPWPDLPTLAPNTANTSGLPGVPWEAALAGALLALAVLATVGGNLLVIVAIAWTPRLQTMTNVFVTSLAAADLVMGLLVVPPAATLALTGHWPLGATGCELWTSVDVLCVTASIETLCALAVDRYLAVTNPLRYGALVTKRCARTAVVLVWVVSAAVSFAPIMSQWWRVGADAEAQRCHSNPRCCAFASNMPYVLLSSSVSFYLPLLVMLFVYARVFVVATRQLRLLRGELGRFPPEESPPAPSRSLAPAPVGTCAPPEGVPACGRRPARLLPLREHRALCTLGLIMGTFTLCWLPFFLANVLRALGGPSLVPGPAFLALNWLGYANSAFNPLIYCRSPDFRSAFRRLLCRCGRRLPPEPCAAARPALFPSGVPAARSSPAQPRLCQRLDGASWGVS", "test": "radioligand binding (Table S2)", "conditions": "read-out: % Inhibition @ 10 µM"}, "Muscarinic M1": {"biological_target": "Muscarinic M1 (Homo sapiens, UniProt P11229)", "sequence (P11229 whole entry)": "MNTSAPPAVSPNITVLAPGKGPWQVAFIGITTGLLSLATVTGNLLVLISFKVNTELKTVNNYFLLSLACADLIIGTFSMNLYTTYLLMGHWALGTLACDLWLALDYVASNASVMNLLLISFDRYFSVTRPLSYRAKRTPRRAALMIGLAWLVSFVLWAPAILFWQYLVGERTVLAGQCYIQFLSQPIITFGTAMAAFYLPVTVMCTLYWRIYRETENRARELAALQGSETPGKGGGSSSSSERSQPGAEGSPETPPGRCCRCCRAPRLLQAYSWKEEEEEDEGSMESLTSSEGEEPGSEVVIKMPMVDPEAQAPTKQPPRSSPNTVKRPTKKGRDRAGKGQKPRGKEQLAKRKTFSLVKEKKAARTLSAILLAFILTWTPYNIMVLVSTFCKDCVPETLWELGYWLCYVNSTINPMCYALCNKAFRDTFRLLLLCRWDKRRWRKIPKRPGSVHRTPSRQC", "test": "radioligand binding (Table S2)", "conditions": "read-out: % Inhibition @ 10 µM"}}, "data": [{"smiles": "Cc1cc(-c2ncnn2C)c2cccc(OCc3c(Cl)cc(F)cc3[C@H](C)NC(=O)COC(F)F)c2n1", "note": "[Compound 3, (S)-N-(1-(3-chloro-5-fluoro-2-((2-methyl-4-(1-methyl-1H-1,2,4-triazol-5-yl)quinolin-8-yloxy)methyl)phenyl)ethyl)-2-(difluoromethoxy)acetamide]", "values": [{"measurement": "IC50", "setting": "mouse B2 receptor", "result": "~1200", "unit": "nM"}, {"measurement": "Kb", "setting": "mouse B2 receptor", "result": "~350", "unit": "nM"}, {"measurement": "% Inhibition @ 10 µM", "setting": "[1]", "result": 32.9, "unit": "%"}, {"measurement": "inhibition at 10 µM", "setting": "Dopamine D4.2", "result": 2, "unit": "%"}, {"measurement": "% Inhibition @ 10 µM", "setting": "[2]", "result": -2, "unit": "%"}, {"measurement": "inhibition at 10 µM", "setting": "Histamine H4", "result": -2.8, "unit": "%"}, {"measurement": "inhibition at 10 µM", "setting": "Melatonin MT1 (ML1A)", "result": 15.3, "unit": "%"}, {"measurement": "% Inhibition @ 10 µM", "setting": "Neurokinin NK2", "result": 21, "unit": "%"}, {"measurement": "inhibition at 10 µM", "setting": "Neurokinin NK2", "result": 21.2, "unit": "%"}, {"measurement": "inhibition at 10 µM", "setting": "Neuropeptide Y2", "result": -19.1, "unit": "%"}, {"measurement": "inhibition at 10 µM", "setting": "Opioid κ (KOP)", "result": 15.4, "unit": "%"}, {"measurement": "inhibition at 10 µM", "setting": "Prostacyclin IP (PGI2)", "result": -5, "unit": "%"}, {"measurement": "% Inhibition @ 10 µM", "setting": "Purinergic receptor P2X", "result": 6.3, "unit": "%"}, {"measurement": "inhibition at 10 µM", "setting": "Serotonin 5-HT2C", "result": 5, "unit": "%"}, {"measurement": "inhibition at 10 µM", "setting": "Serotonin 5-HT6", "result": -4.5, "unit": "%"}, {"measurement": "inhibition at 10 µM", "setting": "Serotonin 5-HT7", "result": 3.3, "unit": "%"}, {"measurement": "% Inhibition @ 10 µM", "setting": "[3]", "result": -3.4, "unit": "%"}, {"measurement": "inhibition at 10 µM", "setting": "PDE3A", "result": 15.9, "unit": "%"}, {"measurement": "inhibition at 10 µM", "setting": "Bombesin BB1; CHO, read-out: % inhibition of reference agonist response @ 10 µM (antagonist effect), Neuromedin B (0.1 nM)", "result": 28.5, "unit": "%"}, {"measurement": "% of reference agonist response @ 10 µM (agonist effect)", "setting": "Bombesin BB1; reference neuromedin B (10 nM)", "result": 4.4, "unit": "%"}, {"measurement": "inhibition at 10 µM", "setting": "Vasopressin V1B", "result": 7.7, "unit": "%"}, {"measurement": "inhibition at 10 µM", "setting": "Adenosine A3; CHO, read-out: % inhibition of reference agonist response @ 10 µM (antagonist effect), IB-MECA (10 nM)", "result": 8.5, "unit": "%"}, {"measurement": "% of reference agonist response @ 10 µM (agonist effect)", "setting": "Adenosine A3; reference IB-MECA (100 nM)", "result": 10.5, "unit": "%"}, {"measurement": "inhibition at 10 µM", "setting": "Adrenergic β3", "result": 8.1, "unit": "%"}, {"measurement": "inhibition at 10 µM", "setting": "Muscarinic M1", "result": 3.7, "unit": "%"}]}]}
